Reference: article PMC8429728, “TNK1 is a ubiquitin-binding and 14-3-3-regulated kinase that can be targeted to block tumor growth” (Nature Communications, 2021)
Read-outs that look alike come from different tables or passages of the source.

Key:
Experiment in all cases: biochemical
Design in all cases: Reaction Biology 371-kinase panel at Km ATP, per cent enzyme activity relative to DMSO, single dose in duplicate
[1] = biological target: STK32B/YANK2 (Homo sapiens, UniProt Q9NY57); conditions: duplicate measurements, Km ATP
Method in brief: (§1)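 Compound screened at 300 nM in vitro across a 371-kinase panel. Enzyme activity expressed as % of DMSO controls. IC50 values came from sigmoidal variable-slope dose-response fits with the bottom fixed at 0.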

[2] = biological target: EPHA7 (Homo sapiens, UniProt Q15375); conditions: duplicate measurements, Km ATP
Method in brief: as §1

[3] = biological target: T1, CK1g2 (Homo sapiens, UniProt P78368); conditions: duplicate measurements, Km ATP
T1 construct: gene CSNK1G2
Method in brief: as §1

[4] = biological target: T2, Aurora B (Homo sapiens, UniProt Q96GD4); conditions: duplicate measurements, Km ATP
T2 construct: gene AURKB
Method in brief: as §1

[5] = biological target: MYO3A (Homo sapiens, UniProt Q8NEV4); conditions: duplicate measurements, Km ATP
Method in brief: as §1

[6] = biological target: TIE2/TEK (Homo sapiens, UniProt Q02763); conditions: duplicate measurements, Km ATP
Method in brief: as §1

[7] = biological target: WEE1 (Homo sapiens, UniProt P30291); conditions: duplicate measurements, Km ATP
Method in brief: as §1

[8] = biological target: CLK2 (Homo sapiens, UniProt P49760); conditions: duplicate measurements, Km ATP
Method in brief: as §1

[9] = biological target: ALK1/ACVRL1 (Homo sapiens, UniProt P37023); conditions: duplicate measurements, Km ATP
Method in brief: as §1

[10] = biological target: CDK3/cyclin E2 (Homo sapiens, UniProt Q00526); conditions: duplicate measurements, Km ATP
Method in brief: as §1

[11] = biological target: NEK6 (Homo sapiens, UniProt Q9HC98); conditions: duplicate measurements, Km ATP
Method in brief: as §1

[12] = biological target: SSTK/TSSK6 (Homo sapiens, UniProt Q9BXA6); conditions: duplicate measurements, Km ATP
Method in brief: as §1

[13] = biological target: T3, CK1G3 (Homo sapiens, UniProt Q9Y6M4); conditions: duplicate measurements, Km ATP
T3 construct: gene CSNK1G3
Method in brief: as §1

[14] = biological target: FRK/PTK5 (Homo sapiens, UniProt P42685); conditions: duplicate measurements, Km ATP
Method in brief: as §1

[15] = biological target: GRK4 (Homo sapiens, UniProt P32298); conditions: duplicate measurements, Km ATP
Method in brief: as §1

[16] = biological target: CDK7/cyclin H (Homo sapiens, UniProt P50613); conditions: duplicate measurements, Km ATP
Method in brief: as §1

[17] = biological target: JAK1 (Homo sapiens, UniProt P23458); conditions: duplicate measurements, Km ATP
Method in brief: as §1

[18] = biological target: SRMS (Homo sapiens, UniProt Q9H3Y6); conditions: duplicate measurements, Km ATP
Method in brief: as §1

[19] = biological target: IKKe/IKBKE (Homo sapiens, UniProt Q14164); conditions: duplicate measurements, Km ATP
Method in brief: as §1

[20] = biological target: TYK1/LTK (Homo sapiens, UniProt P29376); conditions: duplicate measurements, Km ATP; read-out: % Enzyme Activity (relative to DMSO controls) / TP-0005801 (0.3µM) / Data 1
Method in brief: as §1

[21] = read-out: % Enzyme Activity (relative to DMSO controls) / TP-0005801 (0.3µM) / Data 1
[22] = read-out: % Enzyme Activity (relative to DMSO controls) / TP-0005801 (0.3µM) / Data 2

Sequence of CDK3/cyclin E2 (Q00526 whole entry): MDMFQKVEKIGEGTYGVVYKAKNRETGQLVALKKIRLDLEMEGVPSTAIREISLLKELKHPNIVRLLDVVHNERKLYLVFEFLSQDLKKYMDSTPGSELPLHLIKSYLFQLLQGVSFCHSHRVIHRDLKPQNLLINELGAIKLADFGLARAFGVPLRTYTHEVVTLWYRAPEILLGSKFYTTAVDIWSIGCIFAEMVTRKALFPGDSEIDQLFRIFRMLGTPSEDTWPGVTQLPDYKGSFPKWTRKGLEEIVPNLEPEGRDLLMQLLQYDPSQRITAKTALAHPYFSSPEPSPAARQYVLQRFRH
Sequence of CDK3/cyclin E2 (O96020 whole entry partner): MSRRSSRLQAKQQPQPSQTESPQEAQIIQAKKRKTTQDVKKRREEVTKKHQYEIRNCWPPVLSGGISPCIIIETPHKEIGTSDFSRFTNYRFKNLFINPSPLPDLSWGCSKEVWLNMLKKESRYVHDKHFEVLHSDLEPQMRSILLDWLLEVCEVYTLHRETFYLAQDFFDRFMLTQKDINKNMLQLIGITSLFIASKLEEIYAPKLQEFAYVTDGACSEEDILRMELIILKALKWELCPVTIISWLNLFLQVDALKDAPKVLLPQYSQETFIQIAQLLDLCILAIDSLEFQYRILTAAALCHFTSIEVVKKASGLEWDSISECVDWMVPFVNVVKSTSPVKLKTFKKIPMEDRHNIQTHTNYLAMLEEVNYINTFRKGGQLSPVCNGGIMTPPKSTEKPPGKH
Sequence of CDK7/cyclin H (P50613 whole entry): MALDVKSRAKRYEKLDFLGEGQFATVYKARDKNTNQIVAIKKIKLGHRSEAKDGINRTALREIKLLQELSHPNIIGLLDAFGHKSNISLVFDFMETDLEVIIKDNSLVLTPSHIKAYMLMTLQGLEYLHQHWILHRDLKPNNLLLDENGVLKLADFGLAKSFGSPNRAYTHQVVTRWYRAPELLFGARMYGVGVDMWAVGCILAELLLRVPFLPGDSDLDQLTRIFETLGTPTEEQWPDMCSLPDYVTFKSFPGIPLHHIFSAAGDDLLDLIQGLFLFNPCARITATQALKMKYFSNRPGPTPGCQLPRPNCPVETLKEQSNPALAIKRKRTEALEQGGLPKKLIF
Sequence of CDK7/cyclin H (P51946 whole entry partner): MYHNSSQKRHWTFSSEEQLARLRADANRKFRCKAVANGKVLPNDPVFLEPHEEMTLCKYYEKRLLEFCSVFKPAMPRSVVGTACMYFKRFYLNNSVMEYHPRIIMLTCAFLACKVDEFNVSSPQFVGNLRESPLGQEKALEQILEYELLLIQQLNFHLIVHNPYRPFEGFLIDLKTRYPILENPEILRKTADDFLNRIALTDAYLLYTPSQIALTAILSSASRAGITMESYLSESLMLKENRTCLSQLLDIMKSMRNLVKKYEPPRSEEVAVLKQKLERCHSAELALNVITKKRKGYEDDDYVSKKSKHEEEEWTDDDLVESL
Sequence of TIE2/TEK (Q02763 whole entry): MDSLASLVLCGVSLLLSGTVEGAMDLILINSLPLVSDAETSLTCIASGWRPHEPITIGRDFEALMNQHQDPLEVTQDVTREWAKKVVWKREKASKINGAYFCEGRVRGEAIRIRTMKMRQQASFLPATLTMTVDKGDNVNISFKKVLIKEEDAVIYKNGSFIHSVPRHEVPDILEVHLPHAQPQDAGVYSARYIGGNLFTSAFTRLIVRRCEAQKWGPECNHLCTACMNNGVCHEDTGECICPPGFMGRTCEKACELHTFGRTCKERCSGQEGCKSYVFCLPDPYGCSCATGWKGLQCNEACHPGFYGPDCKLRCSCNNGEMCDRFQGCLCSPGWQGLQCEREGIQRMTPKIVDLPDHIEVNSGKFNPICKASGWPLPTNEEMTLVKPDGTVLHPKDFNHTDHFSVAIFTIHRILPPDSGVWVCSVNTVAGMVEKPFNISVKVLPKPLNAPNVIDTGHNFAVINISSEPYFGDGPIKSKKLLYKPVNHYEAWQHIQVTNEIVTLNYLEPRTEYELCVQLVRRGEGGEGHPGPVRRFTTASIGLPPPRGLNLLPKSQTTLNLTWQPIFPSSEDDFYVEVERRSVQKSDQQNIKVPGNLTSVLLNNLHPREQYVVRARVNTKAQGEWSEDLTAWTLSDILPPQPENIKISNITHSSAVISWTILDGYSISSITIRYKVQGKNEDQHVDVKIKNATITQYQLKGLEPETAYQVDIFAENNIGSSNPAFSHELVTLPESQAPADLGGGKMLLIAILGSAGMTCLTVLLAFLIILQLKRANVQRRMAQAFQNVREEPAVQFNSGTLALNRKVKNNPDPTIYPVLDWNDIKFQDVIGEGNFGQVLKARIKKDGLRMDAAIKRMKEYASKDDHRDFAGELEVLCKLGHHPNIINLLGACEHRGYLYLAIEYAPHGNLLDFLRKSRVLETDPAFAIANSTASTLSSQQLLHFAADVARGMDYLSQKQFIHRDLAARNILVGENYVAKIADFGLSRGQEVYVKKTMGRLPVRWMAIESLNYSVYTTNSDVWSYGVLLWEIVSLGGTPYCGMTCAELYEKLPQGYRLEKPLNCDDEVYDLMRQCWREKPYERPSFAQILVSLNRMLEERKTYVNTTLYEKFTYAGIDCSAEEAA
Sequence of MYO3A (Q8NEV4 whole entry): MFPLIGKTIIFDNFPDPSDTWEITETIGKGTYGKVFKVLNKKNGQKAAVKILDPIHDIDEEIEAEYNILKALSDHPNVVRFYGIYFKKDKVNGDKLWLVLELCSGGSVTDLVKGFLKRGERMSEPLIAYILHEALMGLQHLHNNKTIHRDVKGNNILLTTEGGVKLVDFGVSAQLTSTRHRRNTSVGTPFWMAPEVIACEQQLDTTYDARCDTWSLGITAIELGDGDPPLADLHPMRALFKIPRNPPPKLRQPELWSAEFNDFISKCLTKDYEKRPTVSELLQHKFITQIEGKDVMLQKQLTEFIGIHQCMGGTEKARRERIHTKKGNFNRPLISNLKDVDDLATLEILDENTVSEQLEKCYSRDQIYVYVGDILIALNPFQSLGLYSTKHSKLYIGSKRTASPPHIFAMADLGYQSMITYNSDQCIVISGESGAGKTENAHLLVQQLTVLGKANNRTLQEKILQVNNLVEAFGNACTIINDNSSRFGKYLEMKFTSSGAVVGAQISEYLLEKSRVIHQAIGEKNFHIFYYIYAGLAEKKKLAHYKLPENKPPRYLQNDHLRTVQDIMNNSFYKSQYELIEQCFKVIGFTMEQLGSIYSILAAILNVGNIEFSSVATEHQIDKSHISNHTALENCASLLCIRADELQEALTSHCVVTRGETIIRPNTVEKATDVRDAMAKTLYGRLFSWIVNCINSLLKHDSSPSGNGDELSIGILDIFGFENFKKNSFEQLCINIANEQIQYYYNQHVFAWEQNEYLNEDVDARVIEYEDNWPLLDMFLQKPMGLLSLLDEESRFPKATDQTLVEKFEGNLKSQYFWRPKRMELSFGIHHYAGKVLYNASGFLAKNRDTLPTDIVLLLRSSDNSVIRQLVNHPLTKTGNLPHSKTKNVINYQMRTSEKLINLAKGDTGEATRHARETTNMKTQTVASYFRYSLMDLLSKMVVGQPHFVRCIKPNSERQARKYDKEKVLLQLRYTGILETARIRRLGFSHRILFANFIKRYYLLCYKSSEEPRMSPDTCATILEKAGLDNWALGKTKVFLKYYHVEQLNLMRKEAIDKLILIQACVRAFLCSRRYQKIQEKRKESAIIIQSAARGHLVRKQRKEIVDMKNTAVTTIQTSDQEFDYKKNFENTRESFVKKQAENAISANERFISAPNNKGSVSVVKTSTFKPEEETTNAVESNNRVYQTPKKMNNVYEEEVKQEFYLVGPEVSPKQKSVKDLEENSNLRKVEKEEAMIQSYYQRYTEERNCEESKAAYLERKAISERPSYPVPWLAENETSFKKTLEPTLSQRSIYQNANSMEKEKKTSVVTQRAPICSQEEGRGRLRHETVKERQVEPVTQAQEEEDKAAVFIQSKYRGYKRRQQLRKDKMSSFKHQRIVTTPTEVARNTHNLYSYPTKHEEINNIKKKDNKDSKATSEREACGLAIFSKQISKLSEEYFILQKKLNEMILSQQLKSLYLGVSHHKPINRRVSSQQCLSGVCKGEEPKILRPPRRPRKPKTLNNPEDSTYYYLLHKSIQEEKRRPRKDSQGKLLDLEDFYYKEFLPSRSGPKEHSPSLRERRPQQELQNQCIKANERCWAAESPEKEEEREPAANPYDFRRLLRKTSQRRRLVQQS
Sequence of SSTK/TSSK6 (Q9BXA6 whole entry): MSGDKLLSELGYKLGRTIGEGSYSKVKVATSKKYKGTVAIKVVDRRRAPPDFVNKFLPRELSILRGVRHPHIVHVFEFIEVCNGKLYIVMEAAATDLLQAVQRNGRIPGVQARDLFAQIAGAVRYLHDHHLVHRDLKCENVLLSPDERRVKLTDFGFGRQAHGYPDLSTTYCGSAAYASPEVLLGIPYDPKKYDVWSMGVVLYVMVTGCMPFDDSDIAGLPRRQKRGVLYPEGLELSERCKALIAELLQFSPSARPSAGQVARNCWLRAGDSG
Sequence of WEE1 (P30291 whole entry): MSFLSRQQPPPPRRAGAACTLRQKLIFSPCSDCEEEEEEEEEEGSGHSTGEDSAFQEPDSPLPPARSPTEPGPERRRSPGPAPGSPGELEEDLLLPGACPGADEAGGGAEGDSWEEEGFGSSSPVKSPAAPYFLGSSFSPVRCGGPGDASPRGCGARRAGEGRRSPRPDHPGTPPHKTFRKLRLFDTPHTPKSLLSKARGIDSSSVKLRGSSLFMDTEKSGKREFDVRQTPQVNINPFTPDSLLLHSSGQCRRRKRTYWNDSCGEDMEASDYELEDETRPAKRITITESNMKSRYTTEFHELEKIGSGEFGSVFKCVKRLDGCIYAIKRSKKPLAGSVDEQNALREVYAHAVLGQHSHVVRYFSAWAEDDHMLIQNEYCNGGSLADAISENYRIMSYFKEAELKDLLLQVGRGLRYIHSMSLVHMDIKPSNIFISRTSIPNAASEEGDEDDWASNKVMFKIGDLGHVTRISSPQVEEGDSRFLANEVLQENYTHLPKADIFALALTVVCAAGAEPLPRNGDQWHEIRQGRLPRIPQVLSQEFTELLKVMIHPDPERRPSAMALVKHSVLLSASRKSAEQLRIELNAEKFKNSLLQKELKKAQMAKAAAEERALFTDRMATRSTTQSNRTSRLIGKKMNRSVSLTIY

**Q.** `COc1cc(N2CCN(C)CC2)c(C)cc1Nc1ncc(Br)c(Nc2cccnc2N(C)C)n1` [TP-5801] was tested. Which remaining activity at 0.3 µM [1, 21] did it give?
**A.** The remaining activity at 0.3 µM was 96.4%.

**Q.** What about the remaining activity at 0.3 µM [1, 22] of the same compound?
**A.** The remaining activity at 0.3 µM was 94.8%.

**Q.** And the remaining activity at 0.3 µM [2, 21]?
**A.** Its remaining activity at 0.3 µM is 95.2%.

**Q.** And the remaining activity at 0.3 µM [2, 22]?
**A.** Its remaining activity at 0.3 µM is 94%.

**Q.** And the remaining activity at 0.3 µM [3, 21]?
**A.** The remaining activity at 0.3 µM was 94.5%.

**Q.** What about the remaining activity at 0.3 µM [3, 22] of the same compound?
**A.** Its remaining activity at 0.3 µM is 92.9%.

**Q.** What about the remaining activity at 0.3 µM [4, 21] of the same compound?
**A.** Its remaining activity at 0.3 µM is 86.7%.

**Q.** What about the remaining activity at 0.3 µM [4, 22] of the same compound?
**A.** Its remaining activity at 0.3 µM is 83.9%.

**Q.** And the remaining activity at 0.3 µM [5, 21]?
**A.** The remaining activity at 0.3 µM was 69.8%.

**Q.** What about the remaining activity at 0.3 µM [5, 22] of the same compound?
**A.** The remaining activity at 0.3 µM was 66.3%.

**Q.** And the remaining activity at 0.3 µM [6, 21]?
**A.** Its remaining activity at 0.3 µM is 83.6%.

**Q.** What about the remaining activity at 0.3 µM [6, 22] of the same compound?
**A.** The remaining activity at 0.3 µM was 80.7%.

**Q.** What about the remaining activity at 0.3 µM [7, 21] of the same compound?
**A.** The remaining activity at 0.3 µM was 94.2%.

**Q.** And the remaining activity at 0.3 µM [7, 22]?
**A.** Its remaining activity at 0.3 µM is 93.6%.

**Q.** What about the remaining activity at 0.3 µM [8, 21] of the same compound?
**A.** Its remaining activity at 0.3 µM is 69.8%.

**Q.** And the remaining activity at 0.3 µM [8, 22]?
**A.** The remaining activity at 0.3 µM was 68.6%.

**Q.** What about the remaining activity at 0.3 µM [9, 21] of the same compound?
**A.** The remaining activity at 0.3 µM was 88.3%.

**Q.** And the remaining activity at 0.3 µM [9, 22]?
**A.** The remaining activity at 0.3 µM was 83.6%.

**Q.** What about the remaining activity at 0.3 µM [10, 21] of the same compound?
**A.** Its remaining activity at 0.3 µM is 95.5%.

**Q.** What about the remaining activity at 0.3 µM [10, 22] of the same compound?
**A.** The remaining activity at 0.3 µM was 95.1%.

**Q.** What about the remaining activity at 0.3 µM [11, 21] of the same compound?
**A.** Its remaining activity at 0.3 µM is 95.2%.

**Q.** And the remaining activity at 0.3 µM [11, 22]?
**A.** Its remaining activity at 0.3 µM is 91.5%.

**Q.** What about the remaining activity at 0.3 µM [12, 21] of the same compound?
**A.** The remaining activity at 0.3 µM was 111%.

**Q.** What about the remaining activity at 0.3 µM [12, 22] of the same compound?
**A.** The remaining activity at 0.3 µM was 107%.

**Q.** What about the remaining activity at 0.3 µM [13, 21] of the same compound?
**A.** Its remaining activity at 0.3 µM is 94.7%.

**Q.** And the remaining activity at 0.3 µM [13, 22]?
**A.** Its remaining activity at 0.3 µM is 93.6%.

**Q.** And the remaining activity at 0.3 µM [14, 21]?
**A.** Its remaining activity at 0.3 µM is 72%.

**Q.** What about the remaining activity at 0.3 µM [14, 22] of the same compound?
**A.** Its remaining activity at 0.3 µM is 71%.

**Q.** What about the remaining activity at 0.3 µM [15, 21] of the same compound?
**A.** The remaining activity at 0.3 µM was 109%.

**Q.** And the remaining activity at 0.3 µM [15, 22]?
**A.** Its remaining activity at 0.3 µM is 108%.

**Q.** And the remaining activity at 0.3 µM [16, 21]?
**A.** The remaining activity at 0.3 µM was 103%.

**Q.** And the remaining activity at 0.3 µM [16, 22]?
**A.** Its remaining activity at 0.3 µM is 101%.

**Q.** What about the remaining activity at 0.3 µM [17, 21] of the same compound?
**A.** Its remaining activity at 0.3 µM is 104%.

**Q.** And the remaining activity at 0.3 µM [17, 22]?
**A.** The remaining activity at 0.3 µM was 102%.

**Q.** What about the remaining activity at 0.3 µM [18, 21] of the same compound?
**A.** Its remaining activity at 0.3 µM is 89.9%.

**Q.** And the remaining activity at 0.3 µM [18, 22]?
**A.** The remaining activity at 0.3 µM was 89.5%.

**Q.** And the remaining activity at 0.3 µM [19, 21]?
**A.** The remaining activity at 0.3 µM was 99.7%.

**Q.** And the remaining activity at 0.3 µM [19, 22]?
**A.** Its remaining activity at 0.3 µM is 94.2%.

**Q.** And the remaining activity at 0.3 µM [20]?
**A.** Its remaining activity at 0.3 µM is 16.4%.
